Laboratory results taken from patent publication US11690854B2, “Methods of treating heavy menstrual bleeding” (priority 2018, dated 2023).

Tests used:
[1] = Drug interaction studies: co-administered drug pharmacokinetics in the presence of elagolix; details: for Effect of co-administration of ELAGOLIX on concentration of concomitant drug (direction of the change in AUC): established drug interactions
Method: (§1) Drug interaction studies were performed with ELAGOLIX and other drugs that are likely to be co-administered and with drugs commonly used as probes for pharmacokinetic interactions.

[2] = for Drugs with no observed clinically significant interactions with ELAGOLIX: co-administration with ELAGOLIX
Method: as §1

[3] = Ethinyl estradiol 35 mcg and triphasic norgestimate 0.18/0.215/0.25 mg once daily, elagolix 150 ms once daily, N 21

## C#C[C@]1(O)CC[C@H]2[C@@H]3CCC4=CC(=NO)CC[C@@H]4[C@H]3CC[C@@]21CC (mixture of isomers) [Norelgestromin]
[1]; [3]
  Ratio of co-administered drug AUC, with elagolix vs medication alone: 0.85
  Ratio of co-administered drug Cmax, with elagolix vs medication alone: 0.87

## C#CC1(O)CC[C@H]2[C@@H]3CCC4=CC(=O)CC[C@@H]4[C@H]3CC[C@@]21CC (mixture of isomers) [Norgestrel]
[1]; [3]
  Ratio of co-administered drug AUC, with elagolix vs medication alone: 0.92
  Ratio of co-administered drug Cmax, with elagolix vs medication alone: 0.89

## C[C@H]1O[C@@H](O[C@H]2[C@@H](O)C[C@H](O[C@H]3[C@@H](O)C[C@H](O[C@H]4CC[C@@]5(C)[C@H](CC[C@@H]6[C@@H]5C[C@@H](O)[C@]5(C)[C@@H](C7=CC(=O)OC7)CC[C@]65O)C4)O[C@@H]3C)O[C@@H]2C)C[C@H](O)[C@@H]1O [Digoxin]
[1]; Digoxin 0.5 mg single dose, elagolix 200 ms twice daily × 10 days, N 11, 90% CI 1.17-1.35
  Ratio of co-administered drug AUC, with elagolix vs medication alone: 1.26
[1]; Digoxin 0.5 mg single dose, elagolix 200 ms twice daily × 10 days, N 11, 90% CI 1.53-1.91
  Ratio of co-administered drug Cmax, with elagolix vs medication alone: 1.71
[1]
  Effect of co-administration of ELAGOLIX on concentration of concomitant drug (direction of the change in AUC): ↑ digoxin

## C#C[C@]1(O)CC[C@H]2[C@@H]3CCc4cc(O)ccc4[C@H]3CC[C@@]21C [Ethinyl Estradiol]
[1]; [3]
  Ratio of co-administered drug AUC, with elagolix vs medication alone: 1.30
  Ratio of co-administered drug Cmax, with elagolix vs medication alone: 1.15

## CC(=O)N1CCN(c2ccc(OCC3COC(Cn4ccnc4)(c4ccc(Cl)cc4Cl)O3)cc2)CC1 (centres unmarked) [Ketoconazole]
[2]
  Drugs with no observed clinically significant interactions with ELAGOLIX: No dose adjustment is required

## Cc1ncc2n1-c1ccc(Cl)cc1C(c1ccccc1F)=NC2 [Midazolam]
[1]; Midazolam 2 mg single dose, elagolix 300 mg twice daily × 11 days, N 20, 90% CI 0.41-0.50
  Ratio of co-administered drug AUC, with elagolix vs medication alone: 0.46
[1]; Midazolam 2 mg single dose, elagolix 300 mg twice daily × 11 days, N 20, 90% CI 0.51-0 62
  Ratio of co-administered drug Cmax, with elagolix vs medication alone: 0.56
[1]; Midazolam 2 mg single dose, elagolix 150 ms once daily × 13 days, N 11, 90% CI 0.58-0.72
  Ratio of co-administered drug AUC, with elagolix vs medication alone: 0.65
[1]; Midazolam 2 mg single dose, elagolix 150 ms once daily × 13 days, N 11, 90% CI 0.74-0.89
  Ratio of co-administered drug Cmax, with elagolix vs medication alone: 0.81
[1]
  Effect of co-administration of ELAGOLIX on concentration of concomitant drug (direction of the change in AUC): ↓ midazolam

## CO[C@H]1/C=C/O[C@@]2(C)Oc3c(C)c(O)c4c(O)c(c(/C=N/N5CCN(C)CC5)c(O)c4c3C2=O)NC(=O)/C(C)=C\C=C\[C@H](C)[C@H](O)[C@@H](C)[C@@H](O)[C@@H](C)[C@H](OC(C)=O)[C@@H]1C [Rifampin]
[2]; established drug interactions
  Effect of concomitant drug on elagolix (direction of the change in AUC): ↑ elagolix

## CC(C)c1nc(N(C)S(C)(=O)=O)nc(-c2ccc(F)cc2)c1/C=C/[C@@H](O)C[C@@H](O)CC(=O)O [Rosuvastatin]
[1]; Rosuvastatin 20 mg once daily, elagolix 300 mg twice daily × 7 days, N 10, 90% CI 0.50-0.71
  Ratio of co-administered drug AUC, with elagolix vs medication alone: 0.60
[1]; Rosuvastatin 20 mg once daily, elagolix 300 mg twice daily × 7 days, N 10, 90% CI 0.73-1.35
  Ratio of co-administered drug Cmax, with elagolix vs medication alone: 0.99
[1]
  Effect of co-administration of ELAGOLIX on concentration of concomitant drug (direction of the change in AUC): ↓ rosuvastatin

## CN[C@H]1CC[C@@H](c2ccc(Cl)c(Cl)c2)c2ccccc21 [sertraline]
[2]
  Drugs with no observed clinically significant interactions with ELAGOLIX: No dose adjustment is required
